Consider four molecules from publication PMC6803673, “Molecular features of the UNC-45 chaperone critical for binding and folding muscle myosin” (Nature Communications, 2019).

Series [1] concerns the target T1, MHC-B (myosin II heavy chain isoform B, UNC-54) motor domain (Caenorhabditis elegans, UniProt P02566).
T1 construct: motor domain, residues 1-790, C-terminal His6-tag, co-expressed with C. elegans UNC-45 in High Five insect cells, monomeric
T1 sequence (P02566 1-790): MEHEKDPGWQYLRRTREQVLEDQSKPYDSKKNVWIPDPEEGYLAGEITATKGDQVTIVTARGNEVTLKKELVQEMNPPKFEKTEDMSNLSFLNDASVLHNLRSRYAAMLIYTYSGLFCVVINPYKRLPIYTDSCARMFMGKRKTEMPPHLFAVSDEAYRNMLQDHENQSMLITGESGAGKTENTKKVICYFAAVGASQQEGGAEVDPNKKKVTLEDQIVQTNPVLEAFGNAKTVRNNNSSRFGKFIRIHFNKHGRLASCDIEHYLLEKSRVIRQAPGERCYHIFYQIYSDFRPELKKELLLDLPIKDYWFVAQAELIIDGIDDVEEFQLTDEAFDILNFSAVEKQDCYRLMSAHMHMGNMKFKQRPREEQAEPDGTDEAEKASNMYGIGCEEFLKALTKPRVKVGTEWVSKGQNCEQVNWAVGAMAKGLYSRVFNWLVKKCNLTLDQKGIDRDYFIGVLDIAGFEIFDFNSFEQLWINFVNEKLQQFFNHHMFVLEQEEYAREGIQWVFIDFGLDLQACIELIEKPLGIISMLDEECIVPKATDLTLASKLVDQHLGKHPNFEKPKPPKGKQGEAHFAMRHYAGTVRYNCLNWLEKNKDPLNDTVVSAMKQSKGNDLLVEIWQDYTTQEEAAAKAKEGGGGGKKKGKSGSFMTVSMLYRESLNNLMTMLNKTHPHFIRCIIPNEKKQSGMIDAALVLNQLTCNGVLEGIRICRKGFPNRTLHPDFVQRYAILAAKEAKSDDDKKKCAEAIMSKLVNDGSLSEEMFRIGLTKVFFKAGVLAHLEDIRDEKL
The series can be described thus: X-ray crystal structure, […] A. Particulars: nucleotide-binding pocket of the motor domain; crystals pH 6.5, 4 °C.

Series [2] addresses T1, MHC-B (myosin II heavy chain isoform B, UNC-54) motor domain. Put plainly: stopped-flow single turnover, intrinsic tryptophan fluorescence. It is filed as biochemical. Particulars: no actin; 20 mM MOPS pH 7.0, 25 mM KCl, 5 mM MgCl2, 20 °C.
Series [3] concerns the molecule itself. The series can be described thus: crystal structure; UNC-45 mutant crystals grown by sitting drop vapor diffusion at 19 °C.
For series [4], the target named is T2, UNC-45 wild type (bacterial) (C. elegans, UniProt G5EG62 1-961).
T2 construct: UNC-45, C. elegans myosin chaperone, wild type; also called wt UNC-45; wt chaperone; source: E. coli BL21(RIL), purified (NiNTA, anion exchange, SEC)
T2 sequence: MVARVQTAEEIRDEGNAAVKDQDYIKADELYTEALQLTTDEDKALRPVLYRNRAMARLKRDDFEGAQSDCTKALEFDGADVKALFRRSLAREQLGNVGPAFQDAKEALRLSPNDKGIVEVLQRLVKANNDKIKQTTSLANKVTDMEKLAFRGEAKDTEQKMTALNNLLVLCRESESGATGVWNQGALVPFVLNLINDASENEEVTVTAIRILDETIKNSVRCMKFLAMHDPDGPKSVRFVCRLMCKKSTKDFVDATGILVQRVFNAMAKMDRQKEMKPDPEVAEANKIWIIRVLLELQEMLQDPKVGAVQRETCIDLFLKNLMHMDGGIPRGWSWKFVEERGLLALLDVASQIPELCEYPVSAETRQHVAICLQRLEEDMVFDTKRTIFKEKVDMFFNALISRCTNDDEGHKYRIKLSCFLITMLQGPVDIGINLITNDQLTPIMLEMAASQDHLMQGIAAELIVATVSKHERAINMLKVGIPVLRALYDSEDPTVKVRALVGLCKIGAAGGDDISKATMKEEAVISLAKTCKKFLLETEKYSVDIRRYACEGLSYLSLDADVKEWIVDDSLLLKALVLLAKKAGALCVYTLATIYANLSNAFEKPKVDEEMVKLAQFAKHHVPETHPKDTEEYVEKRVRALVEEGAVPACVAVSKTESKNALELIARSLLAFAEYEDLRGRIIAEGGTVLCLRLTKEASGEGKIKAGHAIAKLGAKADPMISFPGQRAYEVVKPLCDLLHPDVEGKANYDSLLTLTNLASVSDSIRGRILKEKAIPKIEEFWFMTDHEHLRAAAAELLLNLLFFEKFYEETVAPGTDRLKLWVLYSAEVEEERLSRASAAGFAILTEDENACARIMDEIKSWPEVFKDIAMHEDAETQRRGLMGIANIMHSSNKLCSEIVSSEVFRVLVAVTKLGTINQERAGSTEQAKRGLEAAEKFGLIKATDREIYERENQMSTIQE
Put plainly: SEC; myosin incubated at 27 °C for 60 min, then with UNC-45 (wild-type or ts-mutant) on ice for 60 min; S200 PC 3.2 column, 20 mM Tris pH 8.0, 150 mM NaCl. The settings on record: both partners purified. In general terms: In gel filtration, larger molecules generally elute earlier.

Take `Nc1ncnc2c1ncn2[C@@H]1O[C@H](COP(=O)(O)OP(=O)(O)O)[C@@H](O)[C@H]1O` [ADP]: the “X-ray crystal structure, 1.9 A” value in series [1] was “we crystallized MHC-B and determined the structure of the ADP-bound state”.

On to `Nc1ncnc2c1ncn2[C@@H]1O[C@H](COP(=O)(O)OP(=O)(O)OP(=O)(O)O)[C@@H](O)[C@H]1O` [ATP], for which, in series [2], the “stopped-flow single turnover, intrinsic tryptophan fluorescence” value was “Upon ATP binding to the myosin motor domain Trp fluorescence is enhanced”.

B1: UNC-45 G427E (ts mutant, bacterial) (natural protein, C. elegans, UniProt G5EG62 1-961, looked up)
chain: MVARVQTAEEIRDEGNAAVKDQDYIKADELYTEALQLTTDEDKALRPVLYRNRAMARLKRDDFEGAQSDCTKALEFDGADVKALFRRSLAREQLGNVGPAFQDAKEALRLSPNDKGIVEVLQRLVKANNDKIKQTTSLANKVTDMEKLAFRGEAKDTEQKMTALNNLLVLCRESESGATGVWNQGALVPFVLNLINDASENEEVTVTAIRILDETIKNSVRCMKFLAMHDPDGPKSVRFVCRLMCKKSTKDFVDATGILVQRVFNAMAKMDRQKEMKPDPEVAEANKIWIIRVLLELQEMLQDPKVGAVQRETCIDLFLKNLMHMDGGIPRGWSWKFVEERGLLALLDVASQIPELCEYPVSAETRQHVAICLQRLEEDMVFDTKRTIFKEKVDMFFNALISRCTNDDEGHKYRIKLSCFLITMLQEPVDIGINLITNDQLTPIMLEMAASQDHLMQGIAAELIVATVSKHERAINMLKVGIPVLRALYDSEDPTVKVRALVGLCKIGAAGGDDISKATMKEEAVISLAKTCKKFLLETEKYSVDIRRYACEGLSYLSLDADVKEWIVDDSLLLKALVLLAKKAGALCVYTLATIYANLSNAFEKPKVDEEMVKLAQFAKHHVPETHPKDTEEYVEKRVRALVEEGAVPACVAVSKTESKNALELIARSLLAFAEYEDLRGRIIAEGGTVLCLRLTKEASGEGKIKAGHAIAKLGAKADPMISFPGQRAYEVVKPLCDLLHPDVEGKANYDSLLTLTNLASVSDSIRGRILKEKAIPKIEEFWFMTDHEHLRAAAAELLLNLLFFEKFYEETVAPGTDRLKLWVLYSAEVEEERLSRASAAGFAILTEDENACARIMDEIKSWPEVFKDIAMHEDAETQRRGLMGIANIMHSSNKLCSEIVSSEVFRVLVAVTKLGTINQERAGSTEQAKRGLEAAEKFGLIKATDREIYERENQMSTIQE
notes: UNC-45, C. elegans, temperature-sensitive point mutant G427E; the SEC assays used the native protein; also called tsG427E; source: E. coli BL21(RIL), purified (NiNTA, anion exchange, SEC); SeMet protein from B834-DE3 cells
B1: in series [3], the binding result was “binds”.

B2: MHC-B muscle myosin motor domain (residues 1–790) (domain or fragment, C. elegans, UniProt P02566 1-790, looked up)
chain: MEHEKDPGWQYLRRTREQVLEDQSKPYDSKKNVWIPDPEEGYLAGEITATKGDQVTIVTARGNEVTLKKELVQEMNPPKFEKTEDMSNLSFLNDASVLHNLRSRYAAMLIYTYSGLFCVVINPYKRLPIYTDSCARMFMGKRKTEMPPHLFAVSDEAYRNMLQDHENQSMLITGESGAGKTENTKKVICYFAAVGASQQEGGAEVDPNKKKVTLEDQIVQTNPVLEAFGNAKTVRNNNSSRFGKFIRIHFNKHGRLASCDIEHYLLEKSRVIRQAPGERCYHIFYQIYSDFRPELKKELLLDLPIKDYWFVAQAELIIDGIDDVEEFQLTDEAFDILNFSAVEKQDCYRLMSAHMHMGNMKFKQRPREEQAEPDGTDEAEKASNMYGIGCEEFLKALTKPRVKVGTEWVSKGQNCEQVNWAVGAMAKGLYSRVFNWLVKKCNLTLDQKGIDRDYFIGVLDIAGFEIFDFNSFEQLWINFVNEKLQQFFNHHMFVLEQEEYAREGIQWVFIDFGLDLQACIELIEKPLGIISMLDEECIVPKATDLTLASKLVDQHLGKHPNFEKPKPPKGKQGEAHFAMRHYAGTVRYNCLNWLEKNKDPLNDTVVSAMKQSKGNDLLVEIWQDYTTQEEAAAKAKEGGGGGKKKGKSGSFMTVSMLYRESLNNLMTMLNKTHPHFIRCIIPNEKKQSGMIDAALVLNQLTCNGVLEGIRICRKGFPNRTLHPDFVQRYAILAAKEAKSDDDKKKCAEAIMSKLVNDGSLSEEMFRIGLTKVFFKAGVLAHLEDIRDEKL
notes: C. elegans body wall muscle myosin II heavy chain isoform B (MHC-B, UNC-54), motor domain, residues 1-790, cloned from C. elegans cDNA; In the SEC assays with UNC-45 the protein was heat-damaged (unfolded or misfolded) at 27 °C; Two vectors (pFastBac DUAL, pACEBac1) encode the same 1-790 His6 protein; also called myosin II heavy chain isoform B; UNC-54; source: High Five insect cells, …
In the case of B2, in series [4], the binding result was “binds”.
